Reference: patent US20230146455A1, “TREATMENT OF INFLAMMATORY DISEASES WITH PEPTIDES AND PHARMACEUTICAL COMPOSITIONS” (Yuyu Pharma, Inc., priority 2020, published 2023)
Where “and” joins values, the source holds several entries; their conditions need not be identical. Equal entries are not always repeated. Where a SMILES comes first, the peptide text is derived from it. [ ]: non-standard residue; d: D form. Hyp = O=C(O)[C@@H]1C[C@@H](O)CN1

Key:
[1] = tested on: IL-1 beta/IL-1F2; assay: Example 9 Luminex, LPS hPBMCs: IL-1 beta/IL-1F2; format: cell-based, human
Procedure: (§1) Treatment Human PBMCs were pretreated with YY-101, YDE-011 and YDE-043 or reference compound; Xiidra® at various concentration (ranging from 1 nM to 100 uM) for 2 h before stimulation. An equal volume of 0.5% DMSO was used as a vehicle control. Then, the cells were treated with LPS at 5 ug/ml. The supernatants from treated cells were harvested at 24 h and placed in a 96 well for Luminex cytokine & chemokine profiling using a Luminex 200 multiplex assay (Luminex; R&D system, USA).
(§2) The main study arm with triplicate wells per group in a 24-well plate: • 1. Blank • 2. PBMC: 0.5% DMSO • 3. PBMC+LPS (5 ug/ml) • 4. PBMC+YY-101 100 uM • 5. PBMC+YY-101 10 uM • 6. PBMC+YY-101 1 uM • 7. PBMC+YY-101 0.1 uM • 8. PBMC+YY-101 0.01 uM • 9. PBMC+LPS (5 ug/ml)+Xiidra®100 uM • 10. PBMC+LPS (5 ug/ml)+Xiidra® 10 uM • 11. PBMC+LPS (5 ug/ml)+Xiidra® 1 uM • 12. PBMC+LPS (5 ug/ml)+Xiidra®0.1 uM • 13. PBMC+LPS (5 ug/ml)+Xiidra®0.01 uM • 14. PBMC+LPS (5 ug/ml)+Xiidra®0.001 uM • 15. PBMC+LPS (5 ug/ml)+YY-101 100 uM • 16. PBMC+LPS (5 ug/ml)+YY-101 10 uM • 17. PBMC+LPS (5 ug/ml)+YY-101 1 uM • 18. PBMC+LPS (5 ug/ml)+YY-101 0.1 uM • 19. PBMC+LPS (5 ug/ml)+YY-101 0.01 uM • 20. PBMC+LPS (5 ug/ml)+YY-101 0.001 uM • 21. PBMC+LPS (5 ug/ml)+YDE-011 100 uM • 22. PBMC+LPS (5 ug/ml)+YDE-011 10 uM • 23. PBMC+LPS (5 ug/ml)+YDE-011 1 uM • 24. PBMC+LPS (5 ug/ml)+YDE-011 0.1 uM • 25. PBMC+LPS (5 ug/ml)+YDE-011 0.01 uM • 26. PBMC+LPS (5 ug/ml)+YDE-011 0.001 uM • 27. PBMC+LPS (5 ug/ml)+YDE-043 100 uM • 28. PBMC+LPS (5 ug/ml)+YDE-043 10 uM • 29. PBMC+LPS (5 ug/ml)+YDE-043 1 uM • 30. PBMC+LPS (5 ug/ml)+YDE-043 0.1 uM • 31. PBMC+LPS (5 ug/ml)+YDE-043 0.01 uM • 32. PBMC+LPS (5 ug/ml)+YDE-043 0.001 uM
(§3) Multiplex assay was used to measure 30 cytokines and chemokines. The 1:2, 1:10 and 1:200 diluted cell supernatant and serial dilution of the standard were dispensed into a 96 well plate at 50 ul/well. Then, the pre-mixed cocktail of antibody-coated magnetic beads was dispensed at 50 ul/well and incubated at room temperature for 2 h in a horizontal orbital microplate shaker at 800±500 rpm. The beads were washed using a magnetic device to prevent loss. The biotin-antibody was dispensed in 50 ul of each well and incubated at room temperature for 1 h in a shaker at 800±500 rpm. After washing, streptavidin-PE was added at 50 ul/well and incubated at room temperature for 30 min in a shaker under the same conditions. Finally, after washing, wash buffer (100 ul/well) was added to the plate and incubated in a shaker for 2 min. The Luminex™ 200 setting were set according to the manufacturer's protocol. The data was calculated with a standard five-parameter logistic nonlinear regression analysis of the data (xPonent software 4.2, USA). The levels of cytokine/chemokine are normalized to the live cell counts (1×10^5 cells/mL) and presented as concentrations per mL (pg/mL or ng/mL).

[2] = tested on: IL-8; assay: Example 9 Luminex, LPS hPBMCs: IL-8; format: cell-based, human
Procedure: as §1, §2, §3

[3] = PBMC + LPS(5 ug/ml) + test article 0.001 uM, Mean
[4] = PBMC + LPS(5 ug/ml) + test article 0.001 uM, single replicates
[5] = PBMC + LPS(5 ug/ml) + test article 0.01 uM, Mean
[6] = PBMC + LPS(5 ug/ml) + test article 0.01 uM, single replicates
[7] = PBMC + LPS(5 ug/ml) + test article 0.1 uM, Mean
[8] = PBMC + LPS(5 ug/ml) + test article 0.1 uM, single replicates
[9] = PBMC + LPS(5 ug/ml) + test article 1 uM, Mean
[10] = PBMC + LPS(5 ug/ml) + test article 1 uM, single replicates
[11] = PBMC + LPS(5 ug/ml) + test article 10 uM, Mean
[12] = PBMC + LPS(5 ug/ml) + test article 10 uM, single replicates
[13] = PBMC + LPS(5 ug/ml) + test article 100 uM, Mean
[14] = PBMC + LPS(5 ug/ml) + test article 100 uM, single replicates
[15] = PBMC + LPS(5 ug/ml) + test article 0.001 uM, single replicates (1st, 2nd, 3rd)
[16] = PBMC + LPS(5 ug/ml) + test article 0.01 uM, single replicates (1st, 2nd, 3rd)
[17] = PBMC + LPS(5 ug/ml) + test article 0.1 uM, single replicates (1st, 2nd, 3rd)
[18] = PBMC + LPS(5 ug/ml) + test article 1 uM, single replicates (1st, 2nd, 3rd)
[19] = PBMC + LPS(5 ug/ml) + test article 10 uM, single replicates (1st, 2nd, 3rd)
[20] = PBMC + LPS(5 ug/ml) + test article 100 uM, single replicates (1st, 2nd, 3rd)

CC(C)C[C@H](NC(=O)[C@H](CCC(N)=O)NC(=O)CNC(=O)[C@@H]1C[C@@H](O)CN1)C(=O)NCC(=O)O [YDE-043] (H-[Hyp]GQLG-OH; N-terminus and C-terminus assumed)
Concentration [1, 3]: 6632.8 pg/mL
MFI [1, 3]: 1711.8
conc/live cell [1, 3]: 1343.9 pg/10^5
Concentration [1, 4]: 6369.5 pg/mL and 7037.7 pg/mL and 6491.1 pg/mL
MFI [1, 4]: 1640.5 and 1821.5 and 1673.5
conc/live cell [1, 4]: 1447.6 pg/10^5 and 1173.0 pg/10^5 and 1411.1 pg/10^5
Concentration [1, 5]: 6569.2 pg/mL
MFI [1, 5]: 1694.7
conc/live cell [1, 5]: 1253.9 pg/10^5
Concentration [1, 6]: 6432.1 pg/mL and 6655.2 pg/mL and 6620.2 pg/mL
MFI [1, 6]: 1657.5 and 1718.0 and 1708.5
conc/live cell [1, 6]: 1429.4 pg/10^5 and 1008.4 pg/10^5 and 1324.0 pg/10^5
Concentration [1, 7]: 6324.2 pg/mL
MFI [1, 7]: 1628.2
conc/live cell [1, 7]: 1172.5 pg/10^5
Concentration [1, 8]: 6049.3 pg/mL and 6384.2 pg/mL and 6539.0 pg/mL
MFI [1, 8]: 1553.5 and 1644.5 and 1686.5
conc/live cell [1, 8]: 1209.9 pg/10^5 and 1140.0 pg/10^5 and 1167.7 pg/10^5
Concentration [1, 9]: 6195.3 pg/mL
MFI [1, 9]: 1593.2
conc/live cell [1, 9]: 1173.7 pg/10^5
Concentration [1, 10]: 6303.2 pg/mL and 5942.7 pg/mL and 6340.0 pg/mL
MFI [1, 10]: 1622.5 and 1524.5 and 1632.5
conc/live cell [1, 10]: 1086.8 pg/10^5 and 1238.1 pg/10^5 and 1196.2 pg/10^5
Concentration [1, 11]: 6556.9 pg/mL
MFI [1, 11]: 1691.3
conc/live cell [1, 11]: 1214.7 pg/10^5
Concentration [1, 12]: 6382.4 pg/mL and 6634.9 pg/mL and 6653.4 pg/mL
MFI [1, 12]: 1644.0 and 1712.5 and 1717.5
conc/live cell [1, 12]: 1227.4 pg/10^5 and 1228.7 pg/10^5 and 1188.1 pg/10^5
Concentration [1, 13]: 8209.5 pg/mL
MFI [1, 13]: 2135.8
conc/live cell [1, 13]: 1304.8 pg/10^5
Concentration [1, 14]: 8744.5 pg/mL and 7674.4 pg/mL
MFI [1, 14]: 2278.5 and 1993.0
conc/live cell [1, 14]: 1410.4 pg/10^5 and 1199.1 pg/10^5
Concentration [2, 3]: 27612.8 pg/mL
conc/live cell [2, 3]: 5610.5 pg/10^5
Concentration [2, 15]: 25319.8 pg/mL and 28134.2 pg/mL and 29384.5 pg/mL
conc/live cell [2, 15]: 5754.5 pg/10^5 and 4689.0 pg/10^5 and 6387.9 pg/10^5
Concentration [2, 5]: 27805.6 pg/mL
conc/live cell [2, 5]: 5331.3 pg/10^5
Concentration [2, 16]: 28010.8 pg/mL and 27056.0 pg/mL and 28350.1 pg/mL
conc/live cell [2, 16]: 6224.6 pg/10^5 and 4099.4 pg/10^5 and 5670.0 pg/10^5
Concentration [2, 7]: 26729.6 pg/mL
conc/live cell [2, 7]: 4969.6 pg/10^5
Concentration [2, 17]: 27502.4 pg/mL and 24737.2 pg/mL and 27949.2 pg/mL
conc/live cell [2, 17]: 5500.5 pg/10^5 and 4417.4 pg/10^5 and 4990.9 pg/10^5
Concentration [2, 9]: 26441.2 pg/mL
conc/live cell [2, 9]: 4990.4 pg/10^5
Concentration [2, 18]: 27517.8 pg/mL and 23008.1 pg/mL and 28797.5 pg/mL
conc/live cell [2, 18]: 4744.4 pg/10^5 and 4793.4 pg/10^5 and 5433.5 pg/10^5
Concentration [2, 11]: 29354.3 pg/mL
conc/live cell [2, 11]: 5450.9 pg/10^5
Concentration [2, 19]: 28998.3 pg/mL and 34618.6 pg/mL and 24446.1 pg/mL
conc/live cell [2, 19]: 5576.6 pg/10^5 and 6410.8 pg/10^5 and 4365.4 pg/10^5
Concentration [2, 13]: 25505.9 pg/mL
conc/live cell [2, 13]: 4053.3 pg/10^5
Concentration [2, 20]: 26994.4 pg/mL and 24017.4 pg/mL
conc/live cell [2, 20]: 4353.9 pg/10^5 and 3752.7 pg/10^5
